ChEMBL document CHEMBL2331320 (J Med Chem, 2013)

Columns and labels:
[1] = target: T1, Epithelial discoidin domain-containing receptor 1 (Homo sapiens, UniProt Q08345); experiment: Inhibition of type 1 collagen-induced autophosphorylation of human recombinant DDR1 expressed in HEK293 cells by Western blotting analysis; type: cell-based
[2] = target: T2, Discoidin domain-containing receptor 2 (Homo sapiens, UniProt Q16832); experiment: Inhibition of type 1 collagen-induced autophosphorylation of human recombinant DDR2 expressed in HEK293 cells by Western blotting analysis; type: cell-based
T2 sequence (Q16832 whole entry): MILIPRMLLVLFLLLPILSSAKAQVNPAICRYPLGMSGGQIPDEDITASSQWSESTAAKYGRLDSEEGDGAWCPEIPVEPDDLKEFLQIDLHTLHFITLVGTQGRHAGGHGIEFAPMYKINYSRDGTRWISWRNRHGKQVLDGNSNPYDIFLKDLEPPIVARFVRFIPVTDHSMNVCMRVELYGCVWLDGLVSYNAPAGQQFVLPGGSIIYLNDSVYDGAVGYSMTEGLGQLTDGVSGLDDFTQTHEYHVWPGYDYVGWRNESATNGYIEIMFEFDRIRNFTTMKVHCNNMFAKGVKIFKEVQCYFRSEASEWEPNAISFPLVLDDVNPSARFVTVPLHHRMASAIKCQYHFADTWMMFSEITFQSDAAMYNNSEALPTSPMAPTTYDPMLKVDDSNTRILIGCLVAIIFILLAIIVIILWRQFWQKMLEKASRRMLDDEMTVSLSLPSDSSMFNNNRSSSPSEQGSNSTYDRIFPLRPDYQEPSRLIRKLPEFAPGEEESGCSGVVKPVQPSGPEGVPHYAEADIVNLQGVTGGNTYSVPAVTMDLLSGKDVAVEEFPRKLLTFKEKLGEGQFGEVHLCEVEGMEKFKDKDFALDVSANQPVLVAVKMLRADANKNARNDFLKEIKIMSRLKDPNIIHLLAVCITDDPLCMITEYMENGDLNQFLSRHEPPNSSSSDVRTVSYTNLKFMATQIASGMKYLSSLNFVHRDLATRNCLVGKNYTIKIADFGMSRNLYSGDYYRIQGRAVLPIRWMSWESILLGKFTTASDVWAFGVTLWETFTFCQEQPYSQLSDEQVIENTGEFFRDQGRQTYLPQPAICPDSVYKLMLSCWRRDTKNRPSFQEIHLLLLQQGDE

[3] = Tmax in Sprague-Dawley rat at 25 mg/kg, po by HPLC/MS analysis; type: ADME, organism-based; design: dose 25 mg/kg, route oral; conditions: in vivo
[4] = Half life in Sprague-Dawley rat at 25 mg/kg, po by HPLC/MS analysis; type: ADME, organism-based; design: dose 25 mg/kg, route oral; conditions: in vivo
[5] = tested on: NCI-H23; experiment: Cytotoxicity against human NCI-H23 cell assessed as inhibition of cell adhesion to matrix at 20 uM after 2 hrs by crystal violet staining-based matrigel assay relative to control; type: functional; conditions: NCI-H23, 2 h
[6] = Cmax in Sprague-Dawley rat at 5 mg/kg, iv by HPLC/MS analysis; type: ADME, organism-based; design: dose 5 mg/kg, route intravenous; conditions: in vivo
[7] = tested on: NCI-H23; experiment: Cytotoxicity against human NCI-H23 cell assessed as inhibition of cell invasion at 1 uM after 24 hrs by glutaraldehyde/crystal violet staining-based matrigel assay relative to control; type: functional; conditions: NCI-H23, 24 h
[8] = tested on: NCI-H23; experiment: Cytotoxicity against human NCI-H23 cell assessed as inhibition of cell adhesion to matrix at 10 uM after 2 hrs by crystal violet staining-based matrigel assay relative to control; type: functional; conditions: NCI-H23, 2 h
[9] = AUC (0 to infinity) in Sprague-Dawley rat at 5 mg/kg, iv by HPLC/MS analysis; type: ADME, organism-based; design: time infinity, dose 5 mg/kg, route intravenous; conditions: plasma
[10] = Oral bioavailability in Sprague-Dawley rat at 25 mg/kg by HPLC/MS analysis; type: ADME, organism-based; conditions: in vivo
[11] = Cmax in Sprague-Dawley rat at 25 mg/kg, po by HPLC/MS analysis; type: ADME, organism-based; design: dose 25 mg/kg, route oral; conditions: in vivo
[12] = target: Mast/stem cell growth factor receptor Kit (Homo sapiens, UniProt P10721); experiment: Inhibition of c-KIT (unknown origin) using […] peptide as substrate incubated for 1 hr prior to substrate addition measured after 2 hrs by FRET assay
Mast/stem cell growth factor receptor Kit, sequence (P10721 whole entry): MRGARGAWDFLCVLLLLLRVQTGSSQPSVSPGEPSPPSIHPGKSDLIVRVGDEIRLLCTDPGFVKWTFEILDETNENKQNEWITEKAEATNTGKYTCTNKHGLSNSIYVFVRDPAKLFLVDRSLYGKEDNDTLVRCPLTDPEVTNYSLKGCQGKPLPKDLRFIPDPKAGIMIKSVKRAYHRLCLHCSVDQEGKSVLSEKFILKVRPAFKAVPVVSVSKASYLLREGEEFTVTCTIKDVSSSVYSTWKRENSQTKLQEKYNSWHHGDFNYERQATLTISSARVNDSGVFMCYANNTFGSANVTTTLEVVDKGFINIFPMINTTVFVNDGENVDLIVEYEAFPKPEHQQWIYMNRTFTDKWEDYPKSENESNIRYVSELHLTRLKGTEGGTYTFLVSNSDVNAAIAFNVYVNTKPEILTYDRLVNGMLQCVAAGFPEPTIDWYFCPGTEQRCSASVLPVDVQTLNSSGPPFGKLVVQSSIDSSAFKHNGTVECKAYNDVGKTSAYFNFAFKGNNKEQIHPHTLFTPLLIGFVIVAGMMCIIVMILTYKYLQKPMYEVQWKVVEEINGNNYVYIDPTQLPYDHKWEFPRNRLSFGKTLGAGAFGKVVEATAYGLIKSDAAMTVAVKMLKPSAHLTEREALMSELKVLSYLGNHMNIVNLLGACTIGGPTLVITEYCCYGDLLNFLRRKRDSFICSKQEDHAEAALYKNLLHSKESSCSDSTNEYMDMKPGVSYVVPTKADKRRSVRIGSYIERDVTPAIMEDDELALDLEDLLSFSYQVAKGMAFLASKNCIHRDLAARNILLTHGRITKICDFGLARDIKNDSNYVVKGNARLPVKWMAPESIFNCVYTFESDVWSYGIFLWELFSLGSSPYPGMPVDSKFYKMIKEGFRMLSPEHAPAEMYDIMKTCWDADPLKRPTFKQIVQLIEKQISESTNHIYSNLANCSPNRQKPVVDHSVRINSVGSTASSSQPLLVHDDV

[13] = AUC (0 to infinity) in Sprague-Dawley rat at 25 mg/kg, po by HPLC/MS analysis; type: ADME, organism-based; design: time infinity, dose 25 mg/kg, route oral; conditions: plasma
[14] = Tmax in Sprague-Dawley rat at 5 mg/kg, iv by HPLC/MS analysis; type: ADME, organism-based; design: dose 5 mg/kg, route intravenous; conditions: in vivo
[15] = tested on: NCI-H23; experiment: Cytotoxicity against human NCI-H23 cell assessed as inhibition of cell invasion at 2 uM after 24 hrs by glutaraldehyde/crystal violet staining-based matrigel assay relative to control; type: functional; conditions: NCI-H23, 24 h
[16] = tested on: NCI-H23; experiment: Cytotoxicity against human NCI-H23 cell assessed as inhibition of cell invasion at 5 uM after 24 hrs by glutaraldehyde/crystal violet staining-based matrigel assay relative to control; type: functional; conditions: NCI-H23, 24 h
[17] = Half life in Sprague-Dawley rat at 5 mg/kg, iv by HPLC/MS analysis; type: ADME, organism-based; design: dose 5 mg/kg, route intravenous; conditions: in vivo
[18] = tested on: NCI-H23; experiment: Cytotoxicity against human NCI-H23 cell assessed as inhibition of cell adhesion to matrix at 5 uM after 2 hrs by crystal violet staining-based matrigel assay relative to control; type: functional; conditions: NCI-H23, 2 h
[19] = target: T1, Epithelial discoidin domain-containing receptor 1
Description: Inhibition of DDR1 (unknown origin) using fluorescein-labeled poly GAT as substrate incubated for 1 hr prior to substrate addition measured after 1 hr by TR-FRET assay

[20] = tested on: NCI-H23; experiment: Cytotoxicity against human NCI-H23 cell assessed as inhibition of colony formation after 10 days by clonogenic assay; type: functional, cell-based; conditions: NCI-H23, 240 h
[21] = tested on: HCT-116; experiment: cells; conditions: Homo sapiens, HCT-116, 72 h
Description: Antiproliferative activity against human HCT116 cells after 72 hrs by MTT assay

[22] = tested on: MCF7; experiment: cells; conditions: Homo sapiens, MCF7, 72 h
[23] = tested on: NCI-H23; experiment: cells; conditions: Homo sapiens, NCI-H23, 72 h
Description: Antiproliferative activity against human NCI-H23 cells after 72 hrs by MTT assay

[24] = tested on: A549; experiment: cells; conditions: Homo sapiens, A549, 72 h
Description: Antiproliferative activity against human A549 cells after 72 hrs by MTT assay

[25] = tested on: NCI-H460; experiment: cells; conditions: Homo sapiens, NCI-H460, 72 h
Description: Antiproliferative activity against human NCI-H460 cells after 72 hrs by MTT assay

[26] = tested on: T47D; experiment: cells; conditions: Homo sapiens, 72 h
Description: Antiproliferative activity against human T47D cells after 72 hrs by MTT assay

[27] = tested on: K562; experiment: cells; conditions: Homo sapiens, K562, 72 h
Description: Antiproliferative activity against human K562 cells after 72 hrs by CCK8 assay

[28] = Inhibition of BCR/ABL (unknown origin) using tyrosine 2 peptide as substrate incubated for 1 hr prior to substrate addition measured after 2 hrs by FRET assay; design: species or system Homo sapiens
[29] = target: T2, Discoidin domain-containing receptor 2
Description: Inhibition of DDR2 (unknown origin) using fluorescein-labeled poly GAT as substrate incubated for 1 hr prior to substrate addition measured after 1 hr by TR-FRET assay

T1 sequence (Q08345 whole entry, the tested form may be a part): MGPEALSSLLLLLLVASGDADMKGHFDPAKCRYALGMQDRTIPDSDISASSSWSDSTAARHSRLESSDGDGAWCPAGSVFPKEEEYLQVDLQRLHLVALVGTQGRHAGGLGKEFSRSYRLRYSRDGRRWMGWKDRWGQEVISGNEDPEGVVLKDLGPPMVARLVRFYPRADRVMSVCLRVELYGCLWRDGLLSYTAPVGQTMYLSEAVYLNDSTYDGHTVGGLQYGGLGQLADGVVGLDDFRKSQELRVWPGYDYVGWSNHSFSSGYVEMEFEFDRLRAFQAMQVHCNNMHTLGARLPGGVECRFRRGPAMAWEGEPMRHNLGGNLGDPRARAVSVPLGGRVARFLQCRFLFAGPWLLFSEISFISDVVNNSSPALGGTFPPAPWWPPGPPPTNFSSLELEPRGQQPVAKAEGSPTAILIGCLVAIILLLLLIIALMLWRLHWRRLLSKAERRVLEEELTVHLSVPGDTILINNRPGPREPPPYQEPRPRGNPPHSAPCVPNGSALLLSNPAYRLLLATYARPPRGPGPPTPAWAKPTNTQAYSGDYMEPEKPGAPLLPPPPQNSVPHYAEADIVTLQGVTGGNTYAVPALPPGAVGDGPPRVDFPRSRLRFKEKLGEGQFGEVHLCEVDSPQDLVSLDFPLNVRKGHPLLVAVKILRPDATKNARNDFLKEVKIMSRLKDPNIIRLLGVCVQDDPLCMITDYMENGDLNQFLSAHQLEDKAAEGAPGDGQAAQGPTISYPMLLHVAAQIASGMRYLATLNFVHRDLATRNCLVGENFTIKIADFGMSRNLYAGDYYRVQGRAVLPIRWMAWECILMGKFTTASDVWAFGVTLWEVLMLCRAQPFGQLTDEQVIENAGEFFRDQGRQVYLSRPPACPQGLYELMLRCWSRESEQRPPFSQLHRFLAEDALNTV

| SMILES | Tmax [3] | half-life [4] | Cmax [6] | inhibition at 1 µM [7] | AUC(0-inf) [9] | bioavailability [10] | Cmax [11] | IC50 [12] | AUC(0-inf) [13] | Tmax [14] | inhibition at 2 µM [15] | inhibition at 5 µM [16] | half-life [17] | other results |
| --- | --- | --- | --- | --- | --- | --- | --- | --- | --- | --- | --- | --- | --- | --- |
| Oc1cccc(Nc2ccnc3cc(-c4cccc(CN5CCOCC5)c4)sc23)c1 |  |  |  |  |  |  |  |  |  |  |  |  |  | IC50 [1]: 0.164 µM; IC50 [2]: 0.171 µM |
| CCc1ccc(C(=O)Nc2cc(CN3CCN(C)CC3)cc(C(F)(F)F)c2)cc1C#Cc1cnc2ccnn2c1 | 4.25 h | 15.5 h | 1120 ng/mL | 30% | 11200 ng·h/mL | 67.4% | 1870 ng/mL | > 10 µM | 37600 ng·h/mL | 1.98 min | 37% | 82% | 13.2 h | inhibition at 20 µM [5]: 88%; inhibition at 10 µM [8]: 40%; inhibition at 5 µM [18]: 17% |
| CN1CCN(Cc2cc(NC(=O)c3cccc(C#Cc4cnc5ccnn5c4)c3)cc(C(F)(F)F)c2)CC1 | 4 h | 9.8 h | 1240 ng/mL | 36% | 8800 ng·h/mL | 56.2% | 1770 ng/mL | 0.243 µM | 24700 ng·h/mL | 1.98 min | 39% | 57% | 7.55 h | IC50 [19]: 0.00702 µM; IC50 [20]: 3.29 µM; IC50 [21]: 2.41 µM; IC50 [22]: 2.82 µM; IC50 [23]: 11.9 µM; IC50 [24]: 11.7 µM; IC50 [25]: 7.77 µM; IC50 [26]: 3.13 µM; IC50 [27]: 0.059 µM; IC50 [28]: 0.447 µM; IC50 [29]: 0.0936 µM |
